Measured values from patent US7741488B2, “Tetrahydropyridothiophenes as antiproliferative agents for the treatment of cancer” (4SC AG, priority 2005, dated 2010).

Assays:
[1] = tested on: RKO (RKOp27) human colon adenocarcinoma cells; assay: Alamar Blue cell viability assay, anti-proliferative/cytotoxic activity on proliferating (uninduced) RKO p27 cells; assay type: cell-based; details: RKOp27, 72 h, proliferating cells without inducer Ponasterone A
Description: The anti-proliferative/cytotoxic activity of the compounds described herein, can be tested on subclones of RKO (RKOp27) human colon adenocarcinoma cells (Schmidt et al., Oncogene 19, 2423-2429; 2000) using the Alamar Blue cell viability assay (described in O'Brien et al. Eur J Biochem 267, 5421-5426, 2000). The compounds are dissolved as 20 mM solutions in dimethylsulfoxide (DMSO) and subsequently diluted in semi-logarithmic steps. DMSO dilutions are further diluted 1:100 into Dulbecco's modified Eagle's medium (DMEM) containing 10% fetal calf serum to a final concentration twice as much as the final concentration in the test. RKO subclones are seeded into 96 well flat bottom plates at a density of 4000 cells per well in a volume of 50 μl per well. 24 hours after seeding the 50 μl each of the compound dilutions in DMEM medium are added into each well of the 96 Well plate. Each compound dilution is tested as quadruplicates. Wells containing untreated control cells are filled with 50 μl DMEM medium containing 1% DMSO. The cells are then incubated with the substances for 72 hours at 37° C. in a humidified atmosphere containing 5% carbon dioxide. To determine the viability of the cells, 10 μl of an Alamar Blue solution (Biosource) are added and the fluorescence is measured at an extinction of 544 nm and an emission of 590 nm. For the calculation of the cell viability the emission value from untreated cells is set as 100% viability and the emission rates of treated cells are set in relation to the values of untreated cells. Viabilities are expressed as % values.
The corresponding IC50 values of the compounds for anti-proliferative/cytotoxic activity are determined from the concentration-effect curves.
Representative IC50 values for anti-proliferation/cytotoxicity determined in the mentioned assay follow from the following table A, in which the numbers of the compound correspond to the numbers of the examples.

[2] = tested on: RKOp27 colon adenocarcinoma cells arrested by expression of ectopic p27Kip1; assay: Alamar Blue cell viability assay on RKO p27 cells arrested by Ponasterone A induced p27Kip1 (cell cycle specific mode of action); assay type: cell-based; details: Homo sapiens, 72 hours, cells arrested by p27Kip1 induced with 10 μM Ponasterone A
Description: To determine the cell cycle specific mode of action, subclones of RKO colon adenocarcinoma cells (RKOp27 or RKOp21 as described by Schmidt et al. in Oncogene 19, 2423-2429; 2000) are seeded into 96 well flat bottom plates at a density of 16000 cells per well in a volume of 50 μl per well in DMEM growth medium with 10% FCS containing 10 μM Ponasterone A. 24 hours after seeding the 50 μl each of the compound dilutions in DMEM medium are added into each well of the 96 Well plate. Each compound dilution is tested as quadruplicates. Wells containing untreated control cells are filled with 50 μl DMEM medium containing 1% DMSO. The cells are then incubated with the substances for 72 hours at 37° C. in a humidified atmosphere containing 5% carbon dioxide. To determine the viability of the cells, 10 μl of an Alamar Blue solution (Biosource) are added and the fluorescence was measured at an extinction of 544 nm and an emission of 590 nm. For the calculation of the cell viability the emission value from untreated cells is set as 100% viability and the emission rates of treated cells are set in relation to the values of untreated cells. Viabilities are expressed as % values. Viability is compared of proliferating cells grown in the absence of the inducer Ponasterone A, versus viability of cells arrested by the expression of ectopic p27Kip1 induced by Ponasterone A.

| Structure (SMILES) | IC50 [2] [µM] | IC50 [1] [µM] |
| --- | --- | --- |
| CCOC(=O)N1CCc2c(sc(NC(=O)CCc3cc(Br)cc(OC)c3OC)c2C#N)C1 [Example 14, 2-[3-(5-Bromo-2,3-dimethoxy-phenyl)-propanoylamino]-3-cyano-4,7-dihydro-5H-thieno[2,3-c]pyridine-6-carboxylic acid ethyl ester] | > 100 | ≤ 0.3 |
| CCOC(=O)N1CCc2c(sc(NC(=O)CCc3cc(Br)ccc3OC)c2C#N)C1 [Example 15, 2-[3-(5-Bromo-2-methoxy-phenyl)-propanoylamino]-3-cyano-4,7-dihydro-5H-thieno[2,3-c]pyridine-6-carboxylic acid ethyl ester] | > 100 | ≤ 0.3 |
| CCOC(=O)N1CCc2c(sc(NC(=O)CCc3cccc(OCC)c3OCC)c2C#N)C1 [Example 16, 3-Cyano-2-[3-(2,3-diethoxy-phenyl)-propanoylamino]-4,7-dihydro-5H-thieno[2,3-c]pyridine-6-carboxylic acid ethyl ester] | > 100 | 0.3 to 2 |
| CCOC(=O)N1CCc2c(sc(NC(=O)CCc3cc(C)ccc3OC)c2C#N)C1 [Example 17, 3-Cyano-2-[3-(2-methoxy-5-methyl-phenyl)-propanoylamino]-4,7-dihydro-5H-thieno[2,3-c]pyridine-6-carboxylic acid ethyl ester] | > 100 | ≤ 0.3 |
| CCOC(=O)N1CCc2c(sc(NC(=O)CCc3c(OC)ccc4c3OC(F)(F)C(F)(F)O4)c2C#N)C1 [Example 18, 3-Cyano-2-[3-(2,2,3,3-tetrafluoro-6-methoxy-2,3-dihydro-benzo[1,4]dioxin-5-yl)-propanoylamino]-4,7-dihydro-5H-thieno[2,3-c]pyridine-6-carboxylic acid ethyl ester] | > 100 | 0.3 to 2 |
| CCOC(=O)N1CCc2c(sc(NC(=O)CCc3ccccc3OCC)c2C#N)C1 [Example 19, 3-Cyano-2-[3-(2-ethoxyphenyl)-propanoylamino]-4,7-dihydro-5H-thieno[2,3-c]-pyridine-6-carboxylic acid ethyl ester] | > 100 | ≤ 0.3 |
| CCOc1ccccc1CCC(=O)Nc1sc2c(c1C#N)CCN(C(=O)OCC1COC(C)(C)O1)C2 (stereo not drawn) [Example 20, 3-Cyano-2-[3-(2-ethoxy-phenyl)-propanoylamino]-4,7-dihydro-5H-thieno[2,3-c]pyridine-6-carboxylic acid 2,2-dimethyl-[1,3]dioxolan-4-ylmethyl ester] | > 100 | ≤ 0.3 |
| CCOc1ccccc1CCC(=O)Nc1sc2c(c1C#N)CCN(C(=O)OCCOCc1ccccc1)C2 [Example 21, 3-Cyano-2-[3-(2-ethoxy-phenyl)-propanoylamino]-4,7-dihydro-5H-thieno[2,3-c]pyridine-6-carboxylic acid 2-benzyloxy-ethyl ester] | > 100 | 0.3 to 2 |
| COc1ccccc1CCC(=O)Nc1sc2c(c1C#N)CCN(C(=O)OCCOCc1ccccc1)C2 [Example 24, 3-Cyano-2-[3-(2-methoxy-phenyl)-propanoylamino]-4,7-dihydro-5H-thieno[2,3-c]pyridine-6-carboxylic acid 2-benzyloxy-ethyl ester] | > 100 | 0.3 to 2 |
| COc1ccccc1CCC(=O)Nc1sc2c(c1C#N)CCN(C(=O)OCCc1ccccn1)C2 [Example 25, 3-Cyano-2-[3-(2-methoxy-phenyl)-propanoylamino]-4,7-dihydro-5H-thieno[2,3-c]pyridine-6-carboxylic acid 2-pyridin-2-yl-ethyl ester] | > 100 | ≤ 0.3 |

Second part, led by results:

| IC50 [2] [µM] | Structure (SMILES) | IC50 [1] [µM] |
| --- | --- | --- |
| > 100 | CCOC(=O)N1CCc2c(sc(NC(=O)CC(C)c3ccccc3OC)c2C#N)C1 (racemic) [Example 49, 3-Cyano-2-[(RS)-3-(2-methoxy-phenyl)-butanoylamino]-4,7-dihydro-5H-thieno[2,3-c]pyridine-6-carboxylic acid ethyl ester] | ≤ 0.3 |
| > 100 | CCOC(=O)N1CCc2c(sc(NC(=O)CCc3ccc(OC)cc3)c2C#N)C1 [Example 1, 3-Cyano-2-[3-(4-methoxy-phenyl)-propanoylamino]-4,7-dihydro-5H-thieno[2,3-c]pyridine-6-carboxylic acid ethyl ester] | ≤ 0.3 |
| > 100 | CCOC(=O)N1CCc2c(sc(NC(=O)CCc3cccc(OC)c3)c2C#N)C1 [Example 2, 3-Cyano-2-[3-(3-methoxy-phenyl)-propanoylamino]-4,7-dihydro-5H-thieno[2,3-c]pyridine-6-carboxylic acid ethyl ester] | ≤ 0.3 |
| > 100 | CCOC(=O)N1CCc2c(sc(NC(=O)CCc3ccccc3OC)c2C#N)C1 [Example 3, 3-Cyano-2-[3-(2-methoxy-phenyl)-propanoylamino]-4,7-dihydro-5H-thieno[2,3-c]pyridine-6-carboxylic acid ethyl ester] | 0.3 to 2 |
| > 100 | CCOC(=O)N1CCc2c(sc(NC(=O)CCc3cccc([N+](=O)[O-])c3)c2C#N)C1 [Example 4, 3-Cyano-2-[3-(3-nitro-phenyl)-propanoylamino]-4,7-dihydro-5H-thieno[2,3-c]pyridine-6-carboxylic acid ethyl ester] | ≤ 0.3 |
| > 100 | CCOC(=O)N1CCc2c(sc(NC(=O)CCc3ccc(OCC)cc3)c2C#N)C1 [Example 5, 3-Cyano-2-[3-(4-ethoxy-phenyl)-propanoylamino]-4,7-dihydro-5H-thieno[2,3-c]pyridine-6-carboxylic acid ethyl ester] | ≤ 0.3 |
| > 100 | CCOC(=O)N1CCc2c(sc(NC(=O)CCc3cccc(OC)c3OC)c2C#N)C1 [Example 6, 3-Cyano-2-[3-(2,3-dimethoxy-phenyl)-propanoylamino]-4,7-dihydro-5H-thieno[2,3-c]pyridine-6-carboxylic acid ethyl ester] | 0.3 to 2 |
| > 100 | CCOC(=O)N1CCc2c(sc(NC(=O)CCc3cc(OC)ccc3OC)c2C#N)C1 [Example 7, 3-Cyano-2-[3-(2,5-dimethoxy-phenyl)-propanoylamino]-4,7-dihydro-5H-thieno[2,3-c]pyridine-6-carboxylic acid ethyl ester] | 0.3 to 2 |
| > 100 | CCOC(=O)N1CCc2c(sc(NC(=O)CCc3cccc(OCC)c3)c2C#N)C1 [Example 8, 3-Cyano-2-[3-(3-ethoxy-phenyl)-propanoylamino]-4,7-dihydro-5H-thieno[2,3-c]pyridine-6-carboxylic acid ethyl ester] | 0.3 to 2 |
| > 100 | CCOc1ccccc1CCC(=O)Nc1sc2c(c1C#N)CCN(C(=O)OC(C)(C)C)C2 [Example 9, 3-Cyano-2-[3-(2-ethoxy-phenyl)-propanoylamino]-4,7-dihydro-5H-thieno[2,3-c]pyridine-6-carboxylic acid tert-butyl ester] | ≤ 0.3 |
| > 100 | COc1ccccc1CCC(=O)Nc1sc2c(c1C#N)CCN(C(=O)OC(C)(C)C)C2 [Example 10, 3-Cyano-2-[3-(2-methoxy-phenyl)-propanoylamino]-4,7-dihydro-5H-thieno[2,3-c]pyridine-6-carboxylic acid tert-butyl ester] | ≤ 0.3 |
| > 100 | COc1cccc(CCC(=O)Nc2sc3c(c2C#N)CCN(C(=O)OC(C)(C)C)C3)c1 [Example 11, 3-Cyano-2-[3-(3-methoxy-phenyl)-propanoylamino]-4,7-dihydro-5H-thieno[2,3-c]pyridine-6-carboxylic acid tert-butyl ester] | ≤ 0.3 |
| > 100 | CCOC(=O)N1CCc2c(sc(NC(=O)CCc3ccccc3OC(F)F)c2C#N)C1 [Example 12, 3-Cyano-2-{3-[2-(1,1-difluoro-methoxy)-phenyl]-propanoylamino}-4,7-dihydro-5H-thieno[2,3-c]pyridine-6-carboxylic acid ethyl ester] | ≤ 0.3 |
| ≥ 40 | COc1ccccc1CCC(=O)Nc1sc2c(c1C#N)CCN(C(=O)OCc1ccccn1)C2 [Example 26, 3-Cyano-2-[3-(2-methoxy-phenyl)-propanoylamino]-4,7-dihydro-5H-thieno[2,3-c]pyridine-6-carboxylic acid pyridin-2-ylmethyl ester] | ≤ 0.3 |
